Measured values as given in article PMC13608006 (Journal of medicinal chemistry, 2018).

Tests used:
[1] = test system: EV-A71; assay: antiviral CPE assay, anti-EV-A71 in LLC cells; format: cell-based, enterovirus 71 (EV-A71); conditions: SI50 = CC50/EC50
[2] = test system: CV-B3 (CVB3-H3); format: cell-based, coxsackievirus B3; conditions: SI50 = CC50/EC50
[3] = test system: PV-1; format: cell-based, poliovirus-1; conditions: SI50 = CC50/EC50
[4] = test system: CVB3-H3-C179F; format: cell-based, coxsackievirus B3
[5] = in vitro; conditions: human

Row | SMILES | SI50 (EV-A71 in LLC cells) [1] | SI50 (CV-B3 in HeLa cells) [2] | SI50 (PV-1 in HeLa cells) [3] | inhibition of CVB3-H3-C179F (missense mutation in the 2C coding domain) [4] | CC50 [5] [µM] | CC50 ([5]; CC50 (anti-PV-1 in HeLa cells column)) [µM]
1 | CC(C)n1ncc2c(C(=O)Nc3ccccc3F)cc(-c3cccs3)nc21 [JX001, N-(2-Fluorophenyl)-1-isopropyl-6-(thiophen-2-yl)-1H-pyrazolo[3,4-b]pyridine-4-carboxamide] | SI50: 21.7 | SI50: 8.9 | SI50: 1.8 | resistant | – | –
2 | CC(C)n1ncc2c(C(=O)Nc3cc(C(N)=O)ccc3F)cc(-c3cccs3)nc21 [JX073, N-(5-Carbamoyl-2-fluorophenyl)-1-isopropyl-6-(thiophen-2-yl)-1H-pyrazolo[3,4-b]pyridine-4-carboxamide] | SI50: 50.0 | SI50: 23.5 | SI50: 3.8 | – | – | –
3 | CC(C)n1ncc2c(C(=O)Nc3cccnc3)cc(-c3cccs3)nc21 [JX056, 1-Isopropyl-N-(pyridin-3-yl)-6-(thiophen-2-yl)-1H-pyrazolo-[3,4-b]pyridine-4-carboxamide] | SI50: >400.0 | SI50: 62.5 | SI50: 2.5 | – | – | –
4 | CC(C)n1ncc2c(C(=O)Nc3cccc(S(N)(=O)=O)c3)cc(-c3cccs3)nc21 [JX025, 1-Isopropyl-N-(3-sulfamoylphenyl)-6-(thiophen-2-yl)-1H-pyrazolo[3,4-b]pyridine-4-carboxamide] | SI50: 19.2 | – | SI50: 10.0 | – | > 200 | 50
5 | CC(C)n1ncc2c(C(=O)Nc3ccccn3)cc(-c3ccccc3)nc21 [JX070, 1-Isopropyl-6-phenyl-N-(pyridin-2-yl)-1H-pyrazolo[3,4-b]-pyridine-4-carboxamide] | SI50: 17.9 | SI50: 11.8 | – | – | – | –
6 | CC(C)n1ncc2c(C(=O)Nc3cccc(F)c3F)cc(-c3cccs3)nc21 [JX019, N-(2,3-Difluorophenyl)-1-isopropyl-6-(thiophen-2-yl)-1H-pyrazolo[3,4-b]pyridine-4-carboxamide] | SI50: 25.0 | SI50: >74.1 | – | – | – | –
7 | CC(C)n1ncc2c(C(=O)Nc3cncnc3)cc(-c3cccs3)nc21 [JX066, 1-Isopropyl-N-(pyrimidin-5-yl)-6-(thiophen-2-yl)-1H-pyrazolo[3,4-b]pyridine-4-carboxamide] | SI50: 50.0 | SI50: 25.7 | SI50: 1.8 | – | – | –
8 | CC(C)n1ncc2c(C(=O)Nc3cccc(C(N)=O)c3)cc(-c3cccs3)nc21 [JX064, N-(3-Carbamoylphenyl)-1-isopropyl-6-(thiophen-2-yl)-1H-pyrazolo[3,4-b]pyridine-4-carboxamide] | SI50: 31.3 | SI50: 25.7 | SI50: 2.9 | – | – | –
9 | CC(C)n1ncc2c(C(=O)Nc3ccccn3)cc(-c3ccsc3)nc21 [JX057, 1-Isopropyl-N-(pyridin-2-yl)-6-(thiophen-3-yl)-1H-pyrazolo-[3,4-b]pyridine-4-carboxamide] | SI50: 31.3 | SI50: 15.0 | – | – | – | –
10 | CC(C)n1ncc2c(C(=O)Nc3cc(S(N)(=O)=O)ccc3F)cc(-c3cccs3)nc21 [JX068, N-(2-Fluoro-5-sulfamoylphenyl)-1-isopropyl-6-(thiophen-2-yl)-1H-pyrazolo[3,4-b]pyridine-4-carboxamide] | SI50: 50.0 | SI50: 25.7 | SI50: 2.9 | – | – | –
11 | CC(C)n1ncc2c(C(=O)Nc3ccc(F)cc3)cc(-c3cccs3)nc21 [JX017, N-(4-Fluorophenyl)-1-isopropyl-6-(thiophen-2-yl)-1H-pyrazolo[3,4-b]pyridine-4-carboxamide] | SI50: >222.2 | SI50: >285.7 | – | – | – | –
12 | CC(C)n1ncc2c(C(=O)Nc3ccccc3S(N)(=O)=O)cc(-c3cccs3)nc21 [JX033, 1-Isopropyl-N-(2-sulfamoylphenyl)-6-(thiophen-2-yl)-1H-pyrazolo[3,4-b]pyridine-4-carboxamide] | SI50: 10.0 | SI50: 3.8 | – | – | – | –
13 | CC(C)n1ccc2c(C(=O)Nc3ccccn3)cc(-c3cccs3)nc21 [JX072, 1-Isopropyl-N-(pyridin-2-yl)-6-(thiophen-2-yl)-1H-pyrrolo-[2,3-b]pyridine-4-carboxamide] | SI50: >166.7 | SI50: 8.5 | – | – | – | –
14 | CC(C)n1ncc2c(C(=O)Nc3cccc(S(=O)(=O)N(C)C)c3)cc(-c3cccs3)nc21 [JX052, N-(3-(N,N-Dimethylsulfamoyl)phenyl)-1-isopropyl-6-(thiophen-2-yl)-1H-pyrazolo[3,4-b]pyridine-4-carboxamide] | SI50: >250.0 | SI50: 12.0 | – | – | – | –
15 | CC(C)n1ncc2c(C(=O)Nc3cccnc3)cc(-c3ccsc3)nc21 [JX060, 1-Isopropyl-N-(pyridin-3-yl)-6-(thiophen-3-yl)-1H-pyrazolo-[3,4-b]pyridine-4-carboxamide] | SI50: 15.4 | SI50: 30.0 | – | – | – | –
16 | CC(C)n1ncc2c(C(=O)Nc3ccncc3)cc(-c3cccs3)nc21 [JX042, 1-Isopropyl-N-(pyridin-4-yl)-6-(thiophen-2-yl)-1H-pyrazolo-[3,4-b]pyridine-4-carboxamide] | SI50: 15.8 | SI50: 10.0 | – | – | – | –
17 | CC(C)n1ncc2c(C(=O)Nc3ccc(S(C)(=O)=O)cc3)cc(-c3cccs3)nc21 [JX047, 1-Isopropyl-N-(4-(methylsulfonyl)phenyl)-6-(thiophen-2-yl)-1H-pyrazolo[3,4-b]pyridine-4-carboxamide] | SI50: 100.0 | SI50: 200.0 | – | – | – | –
18 | CC(C)n1ncc2c(C(=O)Nc3ccc(F)cc3F)cc(-c3cccs3)nc21 [JX008, N-(2,4-Difluorophenyl)-1-isopropyl-6-(thiophen-2-yl)-1H-pyrazolo[3,4-b]pyridine-4-carboxamide] | SI50: >125.0 | SI50: >142.9 | – | – | – | –
